Experimental data as given in patent US20210008095A1, “METHODS FOR TREATING MUSCULAR DYSTROPHY” (Sarepta Therapeutics, Inc., priority 2015, published 2021).
Values joined by “and” are separate entries in the source; they are usually repeats but may differ in a detail not shown here. Identical values can stand only once. “Also recorded” adds a separate entry of the source. Marks after values point to notes of the source that are not given here.

Assays:
Assay type in all cases: in vivo, human
[1] = system: patients with Duchenne muscular dystrophy (DMD) amenable to exon 51 skipping; experiment: 6 Minute Walk Test (6MWT), Study 201/202; set-up: key to Year 4 6MWT: 6MWT distance walked, in meters; conditions: for difference in mean change from baseline in 6MWT distance vs matched external control cohort: 12 treated vs 13 controls; for Year 4 6MWT/6MWD / Year 3 6MWT/6MWD: individual subjects; for Year 4 6MWT Difference in Mean Change: vs external matched control
Experimental: For the eteplirsen treated cohort, eligible patients were between 7 and 13 years of age (inclusive), with out-of-frame deletions of the DMD gene that could be corrected by skipping exon 51. Patients were confirmed to have stable cardiac and pulmonary function and a stable dose of glucocorticoids for at least 24 weeks prior to enrollment. Only patients who could walk between 200 and 400 meters […] on the 6-Minute Walk Test (6MWT) at baseline were enrolled.
This 4 year trial was conducted in two phases: (1) treatment was double-blind through week 24 and (2) open-label thereafter. The primary endpoint was change in ambulation as measured by the 6-Minute Walk Test (6MWT).
(§1) Study 201 (Study no. 4658-us-201; ClinicalTrials.gov Identifier: NCT01396239) was a single-site, randomized, double-blind, placebo-controlled, multiple-dose efficacy, safety and tolerability trial of eteplirsen. Twelve patients with DMD were randomized to one of three groups: eteplirsen 30 mg/kg/week (Cohort 1); eteplirsen 50 mg/kg/week (Cohort 2); or placebo/delayed eteplirsen (Cohort 3). All patients received weekly intravenous eteplirsen or placebo/delayed eteplirsen dosing. Placebo-treated patients crossed over to weekly eteplirsen 30 (n=2) or 50 mg/kg (n=2) at week 25. Efficacy and safety were assessed at scheduled visits, and an independent Data Safety Monitoring Board ensured the welfare of all patients. All patients had bicep biopsies at baseline. Follow-up biopsies were performed in the opposite arm (biceps) at week 12 for the 50 mg/kg group and two placebo-treated patients and at week 24 for the 30 mg/kg group and two placebo-treated patients.
(§2) Patients continued weekly dosing with 30 or 50 mg/kg eteplirsen under Study 202 (Study no. 4658-us-202; ClinicalTrials.gov Identifier: NCT01540409) a long-term, open-label extension study. All efficacy assessments continued to be performed during Study 202, including a third biopsy (in the left deltoid muscle) in all patients at week 48. A voluntary fourth biopsy ( 11/12 patients) was performed at week 180. Monitoring of adverse events continued throughout the study.
(§3) To compare the results of the eteplirsen cohort to a matched external control cohort, the Italian Telethon (n=97) and Leuven Neuromuscular Research Center (NMRC) (n=89) registries were used to compile control data. These registries were chosen because the following data was available: longitudinal 6MWT data in exon 51 amenable patients, longitudinal 6MWT data up to 36 months, and genetic mutation data. There was also an equivalent standard of care, including steroids, in these registries. Patient data was selected based on the following factors: baseline 6MTW and steroid treatment, age of 7 years or older, and amenable to exon 51 skipping (FIG. 2)
(§4) The 6MWT was administered using the protocol established for patients with DMD by McDonald, et al. (Muscle Nerve, 2010; 42:966-74; Muscle Nerve, 2010; 41:500-10 herein incorporated by reference), except there was no use of the StepWatch actimetry device. Exploratory functional outcomes included the North Star Ambulatory Assessment, quantitative muscle testing, the 9-Hole Peg Test, pulmonary function testing (PFT), timed function tests, and assessment of quality of life.

[2] = system: patients with Duchenne muscular dystrophy (DMD) amenable to exon 51 skipping; experiment: Loss of ambulation / ambulatory status incl. Kaplan-Meier analysis, Study 201/202
Experimental: as §1, §2, §3, §4

dystrophin [3] = experiment: Dystrophin positive fibers by immunohistochemistry (MANDYS106) in muscle biopsy
Experimental: as §2
Dystrophin expression levels were determined in both the eteplirsen treated cohort and matched external control cohort, based on MANDYS106 [a gift from Glen Morris, MDA Monoclonal Antibody Library], a highly sensitive marker for dystrophin used in prior studies of eteplirsen and other exon skipping candidates. Three 10 μm frozen sections, separated by at least 200 μm, were stained with MANDYS106, followed by a secondary antibody (Alexa Fluor 594 goat antimouse antibody). Four pathologists reviewed the tissue blinded and reported percent dystrophin-positive fibers, which were calculated by dividing the number of positive fibers by the total fibers counted. As normal muscle samples have 100% dystrophin-positive fibers, percent dystrophin-positive fibers is expressed as a percentage of normal.

dystrophin [4] = experiment: Dystrophin protein expression by western blot analysis in muscle biopsy; conditions: 180 weeks
Experimental: In some embodiments, the percent dystrophin-positive fibers are calculated by dividing the number of positive fibers by the total fibers counted. Normal muscle samples have 100% dystrophin-positive fibers. Therefore, the percent dystrophin-positive fibers can be expressed as a percentage of normal. To control for the presence of trace levels of dystrophin in the pretreatment muscle as well as revertant fibers a baseline can be set using sections of pre-treatment muscles from each patient when counting dystrophin-positive fibers in post-treatment muscles. This may be used as a threshold for counting dystrophin-positive fibers in sections of post-treatment muscle in that patient. In other embodiments, antibody-stained tissue sections can also be used for dystrophin quantification using Bioquant image analysis software (Bioquant Image Analysis Corporation, Nashville, Tenn.). The total dystrophin fluorescence signal intensity can be reported as a percentage of normal. […] Dystrophin production can also be measured by reverse-transcription polymerase chain reaction (RT-PCR). […] The percentage of dystrophin-positive fibers can also be analyzed by determining the expression of the components of the sarcoglycan complex (β,γ) and/or neuronal NOS. […]

Substance: RNA, [P-deoxy-P-(dimethylamino)](2′,3′-dideoxy-2′,3′-imino-2′,3′-seco)(2′a→5′)(C-m5U-C-C-A-A-C-A-m5U-C-A-A-G-G-A-A-G-A-m5U-G-G-C-A-m5U-m5U-m5U-C-m5U-A-G), 5′-[P-[4-[[2-[2-(2-hydroxyethoxy)ethoxy]ethoxy]carbonyl]-1-piperazinyl]-N,N-dimethylphosphonamidate] (antisense CTCCAACATCAAGGAAGATGGCATTTCTAG; all phosphorodiamidate morpholino (PMO); 5' piperazinyl triethylene glycol carbamate tail on phosphonamidate, further chemistry not fully specified) [eteplirsen]
- difference in mean change from baseline in 6MWT distance vs matched external control cohort ([1]; 4 years): 162 m
- difference in mean change from baseline in 6MWT distance vs matched external control cohort ([1]; 36 months / 3 years): 151 m
- 6MWT distance percent change from baseline ([1]; 42 months, all 12 treated patients, external control −74% at month 36): −42%
- 6MWT distance percent change from baseline ([1]; 48 months, placebo-delayed patients excluded (n=8)): −43%
- Year 4 6MWT/6MWD ([1]; 216 weeks, dose group 30 mg/kg): 349 meters and 332 meters and 0 meters (2×)
- Year 4 6MWT/6MWD ([1]; 216 weeks, dose group 50 mg/kg): 192 meters and 221 meters and 237 meters and 400 meters
- Year 4 6MWT/6MWD ([1]; 216 weeks, dose group Placebo to 30 mg/kg): 197 meters and 55 meters
- Year 4 6MWT/6MWD ([1]; 216 weeks, dose group Placebo to 50 mg/kg): 230 meters and 143 meters
- Year 4 6MWT ([1]; Table 5, individual ambulatory subjects (n=10)): 192 and 197 and 230 and 332 and 221 and 55† and 400 and 349 and 237 and 143
- Year 4 6MWT Distance (m) ([1]; Table 6, individual ambulatory subjects (n=10)): 55† m and 332 m and 230 m and 221 m and 400 m and 349 m and 192 m and 143 m and 237 m and 197 m
- Year 3 6MWT/6MWD ([1]; dose group 30 mg/kg): 378 meters and 359 meters and 0 meters (2×)
- Year 3 6MWT/6MWD ([1]; dose group 50 mg/kg): 324 meters and 355 meters and 298 meters and 483 meters
- Year 3 6MWT/6MWD ([1]; dose group Placebo to 30 mg/kg): 312 meters and 100 meters
- Year 3 6MWT/6MWD ([1]; dose group Placebo to 50 mg/kg): 301 meters and 247 meters
- walking distance over the study ([1]; over the duration of the study, FIG. 6): maintained a stable walking distance
- walking ability retained relative to baseline ([1]; several subjects including subject number 4, 216 weeks): greater than 50%
- change in 6MWT relative to baseline ([1]; subject number 15, 216 weeks): lost one meter
- 6MWT distance at year 4 in patients below the NSAA threshold at year 3 ([1]; subjects 003 and 005, respectively): 143 meters and 192 meters
- Year 4 6MWT Difference in Mean Change ([1]; ANCOVA, Covariate: Baseline 6MWT): 150.3, p = 0.002
- Year 4 6MWT Difference in Mean Change ([1]; ANCOVA, Covariates: Baseline 6MWT, Age): 156.1, p = 0.002
- Year 4 6MWT Difference in Mean Change ([1]; ANCOVA, Rank transformed data): 8.7, p = 0.001
- Year 4 6MWT Difference in Mean Change ([1]; MMRM, Covariate: Baseline 6MWT): 146.5, p = 0.003
- Year 4 6MWT Difference in Mean Change ([1]; MMRM, Covariates: Baseline 6MWT, Age): 143.1, p = 0.004
- Year 4 6MWT Difference in Mean Change ([1]; MMRM, Rank transformed data): 8.4, p = 0.004
- patient ambulation between weeks 168 and 192 ([1]; weeks 168 to 192 (42 to 48 months)): patient ambulation stabilized; also recorded: stabilized patient ambulation
- Kaplan-Meier estimate for loss of ambulation rate ([2]; 4 years / 216 weeks of treatment, external control 89.7%, p=0.0038 log-rank): 16.7%
- patients remaining ambulant ([2]; 216 weeks (over 4 years)): 83.3%
- number of patients remaining ambulant ([2]; 216 weeks of treatment): 10 out of 12
- age for loss of ambulation ([2]; Kaplan-Meier, external control median 12.8 years): could not be estimated
- number of patients who lost ambulation ([2]; over 36 months): two of the twelve
- cohort that lost ambulation (cumulative) ([2]; over 36 months, external control 46.2%): 16.7%
- number of patients who lost ambulation ([2]; over 216 weeks): two of the twelve
- DMD patients remaining ambulant ([2]; week 192, 30 mg/kg once per week): 83%
- number of patients ambulant ([2]; week 192 of treatment): 10/12
- ambulation in patients who lost the ability to rise from supine ([2]; year 4 of treatment): remained ambulant at year 4
- patients with dystrophin positive fibers as measured by immunohistochemistry (dystrophin [3]; 180 weeks): 10 of 11
- dystrophin positive fibers compared to matched external control patients (dystrophin [3]; after 180 weeks, four blinded pathologists, p<0.001): significantly higher amount of dystrophin positive fibers
- patients with dystrophin protein expression as measured by western blot analysis (dystrophin [4]): 9 of 11
